Consider one compound from article PMC6591251, “Discovery of potent necroptosis inhibitors targeting RIPK1 kinase activity for the treatment of inflammatory disorder and cancer metastasis” (Cell Death & Disease, 2019).

The test system of one data set is human and mouse cells. Kind of data set: RIPK1-dependent necroptosis (abstract summary). It counts as cell-based. As to conditions: read-out: EC50, inhibition of RIPK1-dependent necroptosis. An excerpt: Necroptosis is a form of regulated necrosis controlled by receptor-interacting kinase 1 (RIPK1 or RIP1), RIPK3 (RIP3), and pseudokinase mixed lineage kinase domain-like protein (MLKL). […] Herein, we discovered the small-molecule PK6 and its derivatives as a novel class of necroptosis inhibitors that directly block the kinase activity of RIPK1. […] PK68 efficiently blocks cellular activation of RIPK1, RIPK3, and MLKL upon necroptosis stimuli. […] Importantly, PK68 provides strong protection against TNF-α-induced systemic inflammatory response syndrome in vivo.

A short description of data set [1]: Pharmacokinetic profile in mice. The format is in vivo. The settings on record: ICR, mouse, plasma; for AUC(0-t): read-out: AUC0-24. The protocol: Encouraged by our overall satisfactory in vitro potency and selectivity data for PK68, we decided to assess its in vivo pharmacokinetic profile.
Data represent mean value ± standard deviation. b Plasma pharmacokinetic parameters of PO and IV. c, d C57BL/6 mice (n = 5) were treated with the indicated daily oral gavage dosing of PK68 for successive 14 days. Body weight (c) and hematoxylin-eosin (H&E) staining (d) of mice were analyzed. Control mice received an equal amount of vehicle. Magnification: ×40. Data represent mean value ± standard deviation TEXT PRINTED IN THE PICTURE: (b) no label printed: Tmax (hr): 0.5 (PO (Gavage)); Cmax (ng/mL): 2423 (PO (Gavage)); AUC0-24 (ng/mL*hr): 4821 (PO (Gavage)); AUC0-24 (ng/mL*hr): 1588 (IV (Bolus)); AUCINF (ng/mL*hr): 4897 (PO (Gavage)); AUCINF (ng/mL*hr): 1590 (IV (Bolus)); t1/2 (hr): 1.3 (PO (Gavage)); t1/2 (hr): 1.0 (IV (Bolus)); MRT (hr): 1.8 (PO (Gavage)); MRT (hr): 0.8 (IV (Bolus)); CL (mL/hr/kg): 1258 (IV (Bolus)); CL (mL/min/kg): 21 (IV (Bolus)); Vss (mL/kg): 1009 (IV (Bolus)); Vss (L/kg): 1.0 (IV (Bolus)); F(%): 61 (PO (Gavage)) DOUBTS OF THE COPYIST ABOUT THIS PICTURE: Panel b prints no substance label with the PK table. The name PK68 is printed only in panels c and d, so the label is left empty.
Judging by the PK time curve, the observed plasma levels of PK68 were above its EC50 over a period of 8 h. […] These doses were meant to determine the preliminary toxicity effects of PK68 (Fig. 6c). […] We further performed histology of various tissues from mice that had received 14-day treatment of PK68.

The test system of data set [2] is B16-F10 or RFP-LL/2 cells. Kind of data set: Proliferation rate and invasion ability without endothelial monolayer. It counts as cell-based, mouse. As to conditions: B16-F10 or RFP-LL/2, in vitro. The protocol:
Studies have shown that RIPK1 kinase activity is involved in the promotion of tumor metastasis through death receptor 6-dependent necroptosis of endothelial cells[22] or VEGF-dependent activation of vascular permeability. We thus evaluated the therapeutic effect of PK68 on lung metastasis of mouse melanoma B16-F10 cells in vivo. […] After 2 weeks, the metastasis of B16-F10 cells was measured by histological analysis and assessed as the number of metastasis nodules in the lung. […] Two weeks after intravenous injection of RFP-LL/2 cells, RFP^+ LL/2 cells were isolated from the tumor tissues by flow cytometer sorting and no signal of phosphorylated RIPK1 was detected in these tumors cells (Supplementary Fig. 22). Six hours after intravenous injection of RFP-LL/2 cells into C57BL/6 mice, the RFP-LL/2 cells have extravasated through blood vessels into the lung (Supplementary Fig. 23). […] Further, we evaluated the effect of PK68 on the tumor cell transmigration across the cultured endothelium. We isolated CD31^+ endothelial cells from the lungs and performed the transendothelial migration assay as previously reported. […]
(A-B) B16-F10 and RFP-LL/2 cells were pretreated with indicated compounds for 1h and then cell viability was measured by cell Titer-Glo. (C) B16-F10 and RFP-LL/2 cells were pre-treated with indicated compounds and invasion ability was measured by the transwell assay.

The target of a further data set is TRKA (Homo sapiens, UniProt P04629). The data set is described as follows: Kinase activity assay at a CRO. The format is biochemical. The settings on record: CRO company. The protocol:
(§1) Further, we evaluated the selectivity of PK68 against a panel of 369 kinases provided by Reaction Biology (at 1000 nM). […] In addition, we followed on some of the active “hits” from the kinome scan. PK68 was tested against TNIK and TRKA by a reputable CRO company. […] RIPK1 is known to mediate NF-κB activation independently of its kinase activity. […] It has been shown that homodimerization of RIPK3 or MLKL induced by the dimerizer leads to necroptosis bypassing the upstream signals[10],[37]. […] This dimerized RIPK3-induced necroptosis was blocked by RIPK3 inhibitor GSK873 but was not blocked by the RIPK1 inhibitor necrostatin-1. […] (Fig. 4e).
(§2) Supplementary Figure 20. The kinase activity assays of PK68 in TNIK and TRKA in vitro, Staurosporine as control.
(§3) (A) The IC50 values were obtained by increasing concentrations of PK68 and Staurosporine in TNIK. (B) The IC50 values were obtained by increasing concentrations of PK68 and Staurosporine in TRKA.

For another data set, the target named is TNIK (Homo sapiens, UniProt Q9UKE5). The data set is described as follows: Kinase activity assay at a CRO. The format is biochemical. The settings on record: CRO company. As for the experimental part:
as §1, §2, §3

Like-named read-outs stand apart in the source and are kept apart here.

TRKA, sequence (P04629 33-796): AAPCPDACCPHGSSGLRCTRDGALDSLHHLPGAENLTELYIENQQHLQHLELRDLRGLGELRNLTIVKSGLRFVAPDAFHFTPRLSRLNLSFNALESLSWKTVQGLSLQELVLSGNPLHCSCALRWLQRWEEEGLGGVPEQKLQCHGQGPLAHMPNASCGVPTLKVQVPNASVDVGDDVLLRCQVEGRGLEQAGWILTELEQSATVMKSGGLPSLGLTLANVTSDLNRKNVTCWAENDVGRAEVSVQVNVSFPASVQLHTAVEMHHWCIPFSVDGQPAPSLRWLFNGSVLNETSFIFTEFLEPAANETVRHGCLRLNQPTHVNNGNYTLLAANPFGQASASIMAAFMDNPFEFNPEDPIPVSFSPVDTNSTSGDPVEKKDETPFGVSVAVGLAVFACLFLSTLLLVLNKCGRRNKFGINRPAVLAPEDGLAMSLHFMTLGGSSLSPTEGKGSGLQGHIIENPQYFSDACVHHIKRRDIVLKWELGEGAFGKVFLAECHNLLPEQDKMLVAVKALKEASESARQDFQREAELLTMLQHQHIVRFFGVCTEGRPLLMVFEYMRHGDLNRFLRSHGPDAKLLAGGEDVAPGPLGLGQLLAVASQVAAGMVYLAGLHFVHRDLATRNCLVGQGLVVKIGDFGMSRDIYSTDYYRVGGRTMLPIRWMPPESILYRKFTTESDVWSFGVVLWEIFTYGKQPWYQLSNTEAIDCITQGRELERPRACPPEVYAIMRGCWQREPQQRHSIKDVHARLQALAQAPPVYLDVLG
TNIK, sequence (Q9UKE5 whole entry): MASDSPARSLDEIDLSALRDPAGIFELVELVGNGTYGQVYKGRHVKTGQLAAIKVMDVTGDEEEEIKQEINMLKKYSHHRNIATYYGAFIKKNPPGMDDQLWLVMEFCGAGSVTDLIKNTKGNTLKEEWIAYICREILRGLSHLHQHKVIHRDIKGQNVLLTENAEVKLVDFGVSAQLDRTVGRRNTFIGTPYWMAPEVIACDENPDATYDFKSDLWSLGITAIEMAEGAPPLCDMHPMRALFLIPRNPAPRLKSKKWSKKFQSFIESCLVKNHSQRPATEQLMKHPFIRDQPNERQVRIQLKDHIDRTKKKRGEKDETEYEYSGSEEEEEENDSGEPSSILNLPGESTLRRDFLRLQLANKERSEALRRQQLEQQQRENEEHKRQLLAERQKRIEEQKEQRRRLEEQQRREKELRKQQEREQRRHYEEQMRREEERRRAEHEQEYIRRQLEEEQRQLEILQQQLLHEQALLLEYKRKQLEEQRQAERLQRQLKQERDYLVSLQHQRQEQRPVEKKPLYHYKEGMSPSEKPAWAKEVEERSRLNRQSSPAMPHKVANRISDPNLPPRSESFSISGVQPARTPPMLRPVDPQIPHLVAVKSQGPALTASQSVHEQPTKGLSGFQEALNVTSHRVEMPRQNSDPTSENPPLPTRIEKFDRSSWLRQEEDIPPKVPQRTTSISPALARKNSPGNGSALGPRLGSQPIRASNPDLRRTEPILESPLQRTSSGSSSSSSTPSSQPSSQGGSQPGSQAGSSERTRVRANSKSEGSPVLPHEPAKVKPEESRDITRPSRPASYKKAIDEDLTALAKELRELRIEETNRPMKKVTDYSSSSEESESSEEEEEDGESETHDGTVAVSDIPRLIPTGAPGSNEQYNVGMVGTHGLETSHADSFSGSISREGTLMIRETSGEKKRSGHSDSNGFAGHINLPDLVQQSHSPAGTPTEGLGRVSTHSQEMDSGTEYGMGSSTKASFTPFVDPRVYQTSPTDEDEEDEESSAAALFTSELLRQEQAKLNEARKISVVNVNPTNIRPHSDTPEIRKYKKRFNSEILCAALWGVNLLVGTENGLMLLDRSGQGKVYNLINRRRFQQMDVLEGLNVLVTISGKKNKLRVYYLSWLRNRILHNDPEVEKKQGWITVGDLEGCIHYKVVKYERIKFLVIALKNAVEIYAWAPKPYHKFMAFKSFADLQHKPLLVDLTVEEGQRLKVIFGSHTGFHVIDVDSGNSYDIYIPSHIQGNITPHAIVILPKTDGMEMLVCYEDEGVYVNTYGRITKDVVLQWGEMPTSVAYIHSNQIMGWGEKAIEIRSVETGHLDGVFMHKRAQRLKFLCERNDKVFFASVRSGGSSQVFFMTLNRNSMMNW

The term EC50 denotes the concentration needed to bring the measured effect to its halfway point. The term clearance denotes the rate of elimination divided by the concentration. As a reminder, the AUC(0-inf) is the area under the concentration-time curve extrapolated to infinity. A low value points to less exposure. For orientation: MRT means the average time that molecules of a dose stay in the body. By half-life is commonly meant how long it takes for the measured level to halve. A high value points to slow loss. What is called bioavailability is dose-corrected exposure relative to a reference, in per cent. In general, Tmax refers to the time from dosing to the highest level. By IC50 is commonly meant the midpoint of a concentration-inhibition curve. As to `CC(=O)Nc1nc2ccc(-c3cnc(C)c(NC(=O)OC4CCCCC4)c3)cc2s1` [PK68, cyclohexyl (5-(2-acetamidobenzo[d]thiazol-6-yl)-2-methylpyridin-3-yl)carbamate], the EC50 with human and mouse cells lay within 0.014 to 0.022 µM. Moreover, the clearance in data set [1] (iv, 2 mg/kg, IV (Bolus)) is 21 mL/min/kg. Moreover, the Vd in data set [1] (iv, 2 mg/kg, IV (Bolus), read-out: Vss) stood at 1 L/kg. Moreover, the AUC(0-inf) in data set [1] (2 mg/kg, IV (Bolus)) is 1590 ng·h/mL; in data set [1] (10 mg/kg, PO (Gavage)) it was 4900 ng·h/mL. In addition, the MRT worked out at 0.8 h in data set [1] (2 mg/kg, IV (Bolus)) and 1.8 h in data set [1] (10 mg/kg, PO (Gavage)). Further, the half-life in data set [1] (2 mg/kg, IV (Bolus)) was 1 h; in data set [1] (10 mg/kg, PO (Gavage)) it was 1.3 h. In addition, the AUC(0-t) in data set [1] (2 mg/kg, IV (Bolus)) amounted to 1590 ng·h/mL; in data set [1] (10 mg/kg, PO (Gavage)), 4820 ng·h/mL. Also, in data set [1] (10 mg/kg, PO (Gavage), read-out: F(%) oral bioavailability), the bioavailability is 61%. The Cmax was ~4 µM in data set [1] (po, orally 10 mg/kg, read-out: plasma concentration translated from Cmax) and 2420 ng/mL in data set [1] (PO (Gavage), 10 mg/kg, read-out: Cmax). The Tmax in data set [1] (PO (Gavage), 10 mg/kg) was 0.5 h. In data set [2], the “proliferation rate and invasion ability” value was “no obvious influence”. Also, the IC50 against TRKA and against TNIK was ~10 µM throughout.
